Patent US20240270751A1, “Pyrazolopyridinone Compounds” (BeiGene Ltd., priority 2021, published 2024)

Legend:
DGKζ = DGKζ (Homo sapiens (Human), UniProt Q13574); experiment: Biochemical DGK IC50 assay, DGKζ ADP-Glo assay; settings: 0.5 nM enzyme, 140 μM ATP, 80 μM DAG; read-out: DGKζ ADP-Glo assay IC50
How it was run: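 Full-length human DGKζ, His-TEV tagged and purified from baculovirus-infected Sf9 cells, assayed by ADP-Glo with DAG/PS lipid micelle substrate prepared in 25 mM HEPES pH 7.0 with octyl glucoside. Final compound concentrations spanned 1.55–10000 nM or 23.3–150000 nM.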

DGKα = DGKα (Homo sapiens (Human), UniProt P23743); experiment: Biochemical DGK IC50 assay, DGKα ADP-Glo assay; settings: 7.5 nM enzyme, 140 μM ATP, 80 μM DAG
Sequence of DGKα (P23743 whole entry): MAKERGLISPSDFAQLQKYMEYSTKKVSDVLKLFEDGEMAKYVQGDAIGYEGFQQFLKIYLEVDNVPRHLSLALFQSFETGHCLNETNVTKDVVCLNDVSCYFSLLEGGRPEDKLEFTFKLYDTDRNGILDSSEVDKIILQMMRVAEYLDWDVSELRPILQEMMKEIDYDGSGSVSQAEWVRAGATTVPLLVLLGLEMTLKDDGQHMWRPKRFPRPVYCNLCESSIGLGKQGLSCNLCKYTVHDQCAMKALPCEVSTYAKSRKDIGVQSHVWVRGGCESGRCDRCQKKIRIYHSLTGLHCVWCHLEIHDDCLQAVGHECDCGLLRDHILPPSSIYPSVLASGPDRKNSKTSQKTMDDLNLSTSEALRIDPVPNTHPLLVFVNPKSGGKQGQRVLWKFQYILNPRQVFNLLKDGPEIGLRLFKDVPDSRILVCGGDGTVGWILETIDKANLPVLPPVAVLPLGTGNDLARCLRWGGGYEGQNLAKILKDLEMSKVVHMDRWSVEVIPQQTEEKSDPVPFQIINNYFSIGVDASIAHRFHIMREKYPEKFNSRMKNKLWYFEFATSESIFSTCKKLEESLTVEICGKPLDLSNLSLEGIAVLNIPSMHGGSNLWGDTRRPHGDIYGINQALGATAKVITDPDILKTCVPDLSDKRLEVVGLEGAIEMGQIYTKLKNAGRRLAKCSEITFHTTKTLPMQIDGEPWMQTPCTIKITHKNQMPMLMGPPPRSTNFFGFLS
How it was run: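 ADP-Glo read-out with full-length DGKα on DAG/PS lipid micelle substrate in 25 mM HEPES pH 7.0, 0.5 mM EDTA, 160 mM octyl β-D-glucopyranoside. Compound final concentrations spanned 1.55˜10000 nM or 23.3˜150000 nM.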

Sequence of DGKζ (Q13574 other isoform, or with tags, fused parts or gaps): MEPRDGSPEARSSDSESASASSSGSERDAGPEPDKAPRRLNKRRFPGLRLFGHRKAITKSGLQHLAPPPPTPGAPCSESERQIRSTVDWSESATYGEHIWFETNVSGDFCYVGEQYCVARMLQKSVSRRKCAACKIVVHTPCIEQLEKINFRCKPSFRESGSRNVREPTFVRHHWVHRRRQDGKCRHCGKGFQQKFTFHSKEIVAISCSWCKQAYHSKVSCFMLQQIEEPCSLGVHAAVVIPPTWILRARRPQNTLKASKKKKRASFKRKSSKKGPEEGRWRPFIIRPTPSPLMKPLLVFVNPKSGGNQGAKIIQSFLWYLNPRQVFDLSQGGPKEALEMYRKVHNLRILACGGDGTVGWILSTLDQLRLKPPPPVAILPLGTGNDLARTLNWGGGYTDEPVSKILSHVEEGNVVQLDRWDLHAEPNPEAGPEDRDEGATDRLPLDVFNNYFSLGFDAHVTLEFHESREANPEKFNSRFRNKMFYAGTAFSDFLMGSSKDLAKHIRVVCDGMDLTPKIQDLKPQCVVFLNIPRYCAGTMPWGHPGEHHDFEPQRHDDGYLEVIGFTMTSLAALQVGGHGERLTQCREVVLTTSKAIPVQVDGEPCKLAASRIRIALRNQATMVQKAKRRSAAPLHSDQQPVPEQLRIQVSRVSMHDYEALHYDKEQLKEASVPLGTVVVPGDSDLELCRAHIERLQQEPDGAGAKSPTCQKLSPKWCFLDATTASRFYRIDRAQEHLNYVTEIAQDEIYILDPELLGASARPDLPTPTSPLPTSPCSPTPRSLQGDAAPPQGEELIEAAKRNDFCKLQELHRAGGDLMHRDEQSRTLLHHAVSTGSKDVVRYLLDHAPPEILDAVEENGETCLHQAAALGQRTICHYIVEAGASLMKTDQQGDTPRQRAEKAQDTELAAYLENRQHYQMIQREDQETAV

SMILES	IC50 (DGKζ)	IC50 (DGKα)
CC[C@H]1CN(C(C)c2ccc(C(F)(F)F)cc2OC)[C@H](CC)CN1c1cc(=O)n(C)c2cn(CC#N)nc12 (stereo partly shown) [Compound A157]	1.03 µM	2.99 µM
CC(c1ccc2nccnc2c1)N1C[C@H](CC#N)N(c2cc(=O)n(C)c3cn(CC#N)nc23)C[C@H]1C (stereo partly drawn) [Compound A158, 2-((2S,5R)-1-(2-(cyanomethyl)-4-methyl-5-oxo-4,5-dihydro-2H-pyrazolo[4,3-b]pyridin-7-yl)-5-methyl-4-(1-(quinoxalin-6-yl)ethyl)piperazin-2-yl)acetonitrile]	0.381 µM	> 10 µM
CC[C@H]1CN(C(C)c2ccc3c(n2)OCCO3)[C@H](CC)CN1c1cc(=O)n(C)c2cn(CC#N)nc12 (stereo partly drawn) [Compound A159, 2-(7-((2S,5R)-4-(1-(2,3-dihydro-[1,4]dioxino[2,3-b]pyridin-6-yl)ethyl)-2,5-diethylpiperazin-1-yl)-4-methyl-5-oxo-4,5-dihydro-2H-pyrazolo[4,3-b]pyridin-2-yl)acetonitrile]	0.03 µM	0.19 µM
CC[C@H]1CN(C(C)c2ccc(OC(C)C)cc2)[C@H](CC)CN1c1cc(=O)n(C)c2cn(CC#N)nc12 (stereo partly shown) [Compound A160]	0.247 µM	0.052 µM
CC[C@H]1CN(C(C)c2ccc(F)cc2NC)[C@H](CC)CN1c1cc(=O)n(C)c2cn(CC#N)nc12 (stereo partly shown) [Compound A163]	4.42 µM	> 10 µM
COCC[C@H]1CN(C(C)c2ccc3nccnc3c2)[C@H](C)CN1c1cc(=O)n(C)c2cn(CC#N)nc12 (stereo partly drawn) [Compound A164, 2-(7-((2S,5R)-2-(2-methoxyethyl)-5-methyl-4-(1-(quinoxalin-6-yl)ethyl)piperazin-1-yl)-4-methyl-5-oxo-4,5-dihydro-2H-pyrazolo[4,3-b]pyridin-2-yl)acetonitrile]	0.072 µM	8.97 µM
CC[C@H]1CN(C(C)c2ccccc2NC(C)=O)[C@H](CC)CN1c1cc(=O)n(C)c2cn(CC#N)nc12 (stereo partly shown) [Compound A165]	2.84 µM	> 10 µM
CC[C@H]1CN(C(C)c2ccc3c(n2)OCCN3C)[C@H](CC)CN1c1cc(=O)n(C)c2cn(CC#N)nc12 (stereo partly drawn) [Compound A166, 2-(7-((2S,5R)-2,5-diethyl-4-(1-(1-methyl-2,3-dihydro-1H-pyrido[2,3-b][1,4]oxazin-6-yl)ethyl)piperazin-1-yl)-4-methyl-5-oxo-4,5-dihydro-2H-pyrazolo[4,3-b]pyridin-2-yl)acetonitrile]	2.38 µM	> 10 µM
CC[C@H]1CN(C(C)c2ccc3nccnc3c2)[C@H](CC)CN1c1cc(=O)n(CC2CC2)c2cn(CC#N)nc12 (stereo partly shown) [Compound A167]	1.02 µM	> 10 µM
CC(c1ccc2nccnc2c1)N1C[C@H](C)N(c2c(F)c(=O)n(C)c3cn(CC#N)nc23)C[C@H]1C (stereo partly drawn) [Compound A168, 2-(7-((2S,5R)-2,5-dimethyl-4-(1-(quinoxalin-6-yl)ethyl)piperazin-1-yl)-6-fluoro-4-methyl-5-oxo-4,5-dihydro-2H-pyrazolo[4,3-b]pyridin-2-yl)acetonitrile]	0.028 µM	6.08 µM
CC[C@H]1CN(C(C)c2ccc(F)cc2OC(F)(F)F)[C@H](CC)CN1c1cc(=O)n(C)c2cn(CC#N)nc12 (stereo partly drawn) [Compound A170, 2-(7-((2S,5R)-2,5-diethyl-4-(1-(4-fluoro-2-(trifluoromethoxy)phenyl)ethyl)piperazin-1-yl)-4-methyl-5-oxo-4,5-dihydro-2H-pyrazolo[4,3-b]pyridin-2-yl)acetonitrile]	0.887 µM	> 10 µM
CC[C@H]1CN(C(C)c2nccn2CC)[C@H](CC)CN1c1cc(=O)n(C)c2cn(CC#N)nc12 (stereo partly shown) [Compound A174]	57.9 µM	105 µM
CC[C@H]1CN(C(C)c2ccc(F)cc2C2CC2)[C@H](CC)CN1c1cc(=O)n(C)c2cn(CC#N)nc12 (stereo partly shown) [Compound A175]	0.305 µM	> 10 µM
CCC1CN(c2c(Br)c(=O)n(C)c3cn(CC#N)nc23)CCN1[C@@H](C)c1ccc2nccnc2c1 (stereo partly drawn) [Compound A179a, 2-(6-bromo-7-((2S,5R)-3-ethyl-4-(1-(quinoxalin-6-yl)ethyl)piperazin-1-yl)-4-methyl-5-oxo-4,5-dihydro-2H-pyrazolo[4,3-b]pyridin-2-yl)acetonitrile]	7.88 µM	> 10 µM

Other lines, results leading:

IC50 (DGKζ)	IC50 (DGKα)	SMILES
0.093 µM	5.67 µM	CC[C@H]1CN(C(C)c2cc3ccccc3n2CC)[C@H](CC)CN1c1cc(=O)n(C)c2cn(CC#N)nc12 (stereo partly shown) [Compound A176]
6.9 µM	> 10 µM	CC(c1ccc2nccnc2c1)N1CCN(c2cc(=O)n(C)c3cn(CC#N)nc23)C[C@@H]1C (stereo partly shown) [Compound A178]
6.01 µM	> 10 µM	CC(c1ccc2nccnc2c1)N1CCN(c2cc(=O)n(C)c3cn(CC#N)nc23)CC1CO (stereo not shown) [Compound A184]
0.059 µM	6.37 µM	CC#CCn1cc2c(n1)c(N1C[C@@H](CC)N(C(C)c3nc4ccccc4n3CC)C[C@@H]1CC)cc(=O)n2C (stereo partly shown) [Compound A186]
0.786 µM	> 10 µM	CC[C@H]1CN(C(C)c2ccc(F)cc2C(C)O)[C@H](CC)CN1c1cc(=O)n(C)c2cn(CC#N)nc12 (stereo partly shown) [Compound A188]
3.1 µM	> 10 µM	CC[C@@H]1CN(c2c(C#N)c(=O)n(CC#N)c3cn(CC#N)nc23)[C@@H](C)CN1C(C)c1ccc2nccnc2c1 (stereo partly drawn) [Compound A189, 2,2′-(6-cyano-7-((2S,5R)-5-ethyl-2-methyl-4-(1-(quinoxalin-6-yl)ethyl)piperazin-1-yl)-5-oxo-2H-pyrazolo[4,3-b]pyridine-2,4(5H)-diyl)diacetonitrile]
0.059 µM	> 10 µM	CCCn1c(C(C)N2C[C@H](CC)N(c3cc(=O)n(C)c4cn(CC#N)nc34)C[C@H]2CC)nc2ccccc21 (stereo partly drawn) [Compound A192, 2-(7-((2S,5R)-2,5-diethyl-4-(1-(1-propyl-1H-benzo[d]imidazol-2-yl)ethyl)piperazin-1-yl)-4-methyl-5-oxo-4,5-dihydro-2H-pyrazolo[4,3-b]pyridin-2-yl)acetonitrile]
5.73 µM	> 10 µM	CC[C@H]1CN(C(C)c2nc3ccccc3n2C(C)C)[C@H](CC)CN1c1cc(=O)n(C)c2cn(CC#N)nc12 (stereo partly shown) [Compound A193]
0.151 µM	63.7 µM	CCc1cc(F)ccc1C(C)N1C[C@H](CC)N(c2cc(=O)n(C)c3cn(CC#N)nc23)C[C@H]1CC (stereo partly drawn) [Compound A205, 2-(7-((2S,5R)-2,5-diethyl-4-(1-(2-ethyl-4-fluorophenyl)ethyl)piperazin-1-yl)-4-methyl-5-oxo-4,5-dihydro-2H-pyrazolo[4,3-b]pyridin-2-yl)acetonitrile]
2.27 µM	2.59 µM	CC[C@@H]1CN(c2cc(=O)n(C)c3cn(CC#N)nc23)[C@@H](CC)CN1C(=O)c1cccc(C(F)(F)F)c1 [Compound A206, 2-(7-((2S,5R)-2,5-diethyl-4-(3-(trifluoromethyl)benzoyl)piperazin-1-yl)-4-methyl-5-oxo-4,5-dihydro-2H-pyrazolo[4,3-b]pyridin-2-yl)acetonitrile]
4.05 µM	> 10 µM	CC[C@H]1CN(C(C)c2cccc(=O)n2CC)[C@H](CC)CN1c1cc(=O)n(C)c2cn(CC#N)nc12 (stereo partly shown) [Compound A207]
> 10 µM	> 10 µM	CC[C@H]1CN(C(C)c2cn(CC)c(C)n2)[C@H](CC)CN1c1cc(=O)n(C)c2cn(CC#N)nc12 (stereo partly shown) [Compound A208]
